pKi: −log10 of the molar value.
How the values were obtained:
PTBP1 RRM1 = target: T1, PTBP1 RRM1 (Homo sapiens, UniProt P26599); assay: Competitive fluorescence polarization assay, RRM1 and RNA-2; format: binding; settings: Fig. 3C; competitive FP with RNA-2; read-out: P-6 Ki, construct RRM1
T1 construct: (G41-A163); His tag; made in house; host or cells: E. coli BL21 DE3 RIL
T1 sequence (P26599 41-163): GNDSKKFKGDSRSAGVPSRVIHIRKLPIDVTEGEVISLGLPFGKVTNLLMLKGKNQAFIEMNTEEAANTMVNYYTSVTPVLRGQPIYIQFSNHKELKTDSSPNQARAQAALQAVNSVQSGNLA
From the text: (§1) Different PTBP1 variants were used to investigate the mode of action of P-6via competitive FP experiments. As illustrated in Fig. 1A there is a short linker between RRM1 and the α3-helix which also makes contacts with the RNA. It is possible that when P-6 occupies the binding site of the helix, this linker is displaced disrupting its interactions with the RNA and lowering the RNA-binding affinity. To test this, we measured whether P-6 could inhibit RRM1 RNA-binding. […] Therefore, it seems most likely that P-6 inhibits RRM12 via disturbing the coordinated RNA-binding of the two RRM domains. As this is possibly regulated by the helix we tested if the peptide could inhibit RRM12–L151G where the role of the helix is reduced (Fig. 3C and S5 ^†). […] These findings further support a mode of action where P-6 disturbs coordinated RNA-binding by RRM1 and 2. […]
(§2) size exclusion chromatography (Superdex 75 16/60 or 26/60) with SEC buffer (50 mM Tris, 200 mM NaCl). Protein homogeneity was assessed by the size exclusion chromatogram and purity was checked by SDS-PAGE analysis to be >= 90%.
(§3) The gene encoding for SRSF1-RRM12 (1-195) was subcloned into pOPIN-His expression vector and expressed in E. coli BL21 (DE3). […]
(§4) Fluorescence polarization assay with PTBP1 […]

PTBP1 RRM12-L151G = target: T2, PTBP1 RRM12-L151G (Homo sapiens, UniProt P26599, L151G); assay: Competitive fluorescence polarization assay, RRM12-L151G and RNA-2; format: binding; settings: Fig. 3C; competitive FP with RNA-2; read-out: P-6 Ki, construct RRM12-L151G
T2 construct: (P57-V265); MBP (from pMAL vector); His tag; made in house; host or cells: E. coli BL21 DE3 RIL
T2 sequence (P26599 57-265 L151G): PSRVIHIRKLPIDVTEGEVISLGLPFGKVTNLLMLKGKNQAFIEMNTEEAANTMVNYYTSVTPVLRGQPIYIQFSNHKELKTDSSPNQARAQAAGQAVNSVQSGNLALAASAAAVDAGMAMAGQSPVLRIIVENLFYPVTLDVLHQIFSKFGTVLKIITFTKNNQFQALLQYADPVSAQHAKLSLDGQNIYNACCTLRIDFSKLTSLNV
From the text: as §1, §2, §3, §4

Structure (SMILES): CC(=O)N[C@@H](CC(N)=O)C(=O)N[C@@H](CCC(N)=O)C(=O)N[C@@]1(C)CCCC=CCCCC2(CCCC=CCCC[C@](C)(C(=O)N[C@H](C(=O)N[C@@H](CC(N)=O)C(N)=O)C(C)C)NC(=O)[C@H](CCC(N)=O)NC(=O)[C@H](CC(C)C)NC(=O)[C@H](C)NC2=O)NC(=O)[C@H](CCC(N)=O)NC(=O)[C@H](C)NC(=O)[C@H](CCCNC(=N)N)NC1=O (some centres unmarked) [Peptide P-6]
- pKi (PTBP1 RRM1): < 3.12
- pKi (PTBP1 RRM12-L151G): < 3.12
